Drawing on patent US9688676B2, “Tyrosine kinase inhibitors” (PRINCIPIA BIOPHARMA INC., priority 2015, dated 2017), this text covers IC50 for 23 compounds.

BTK, sequence (Q06187 whole entry): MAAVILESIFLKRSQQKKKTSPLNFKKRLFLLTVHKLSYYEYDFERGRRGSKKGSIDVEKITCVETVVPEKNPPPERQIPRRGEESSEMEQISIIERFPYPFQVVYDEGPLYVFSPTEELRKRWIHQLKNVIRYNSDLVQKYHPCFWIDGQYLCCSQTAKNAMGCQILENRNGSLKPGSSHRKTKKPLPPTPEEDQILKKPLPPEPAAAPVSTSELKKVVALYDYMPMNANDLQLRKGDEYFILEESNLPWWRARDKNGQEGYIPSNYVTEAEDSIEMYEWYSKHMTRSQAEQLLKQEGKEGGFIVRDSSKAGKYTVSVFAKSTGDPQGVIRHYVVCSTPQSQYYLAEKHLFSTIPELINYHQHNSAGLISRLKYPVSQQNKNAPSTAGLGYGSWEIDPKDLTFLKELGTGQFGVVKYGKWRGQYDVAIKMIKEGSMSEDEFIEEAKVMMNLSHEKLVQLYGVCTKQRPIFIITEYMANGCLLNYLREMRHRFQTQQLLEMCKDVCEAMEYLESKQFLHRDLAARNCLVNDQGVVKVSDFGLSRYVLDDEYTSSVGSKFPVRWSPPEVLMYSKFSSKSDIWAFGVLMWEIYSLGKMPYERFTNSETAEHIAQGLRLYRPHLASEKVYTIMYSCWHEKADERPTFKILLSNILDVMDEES

This test addresses BTK (Homo sapiens (Human), UniProt Q06187). Kind of test: BTK enzymatic activity assay (Caliper-based kinase assay). Particulars: human recombinant BTK 0.5 nM, ATP 16 μM, 3 h room temperature. It is filed as biochemical. As for the experimental part: A Caliper-based kinase assay (Caliper Life Sciences, Hopkinton, Mass.) was used to measure inhibition of BTK kinase activity of a compound of the present disclosure. […] The reaction was then terminated with EDTA, final concentration 20 mM and the phosphorylated reaction product was quantified on a Caliper Desktop Profiler (Caliper LabChip 3000). […] This value is presented as the IC50.
On to `CC(C)(C=C(C#N)C(=O)N1CCC[C@@H](n2c(=O)n(-c3ccc(Oc4ccccc4)cc3)c3c(N)nccc32)C1)N1CCN2C(=O)CC[C@@H]2C1` [Compound 61, 2-((R)-3-(4-amino-2-oxo-3-(4-phenoxyphenyl)-2,3-dihydro-1H-imidazo[4,5-c]pyridin-1-yl)piperidine-1-carbonyl)-4-methyl-4-((R)-6-oxohexahydropyrrolo[1,2-a]pyrazin-2(1H)-yl)pent-2-enenitrile], for which the IC50 (usually the concentration that gives 50% inhibition) was found to be 2.5 nM.
In the case of `CN1CCN(c2cccc(C(C)(C)C=C(C#N)C(=O)N3CCC[C@@H](n4c(=O)n(-c5ccc(Oc6ccccc6)cc5)c5c(N)nccc54)C3)n2)CC1` [Compound 54, (R)-2-(3-(4-amino-2-oxo-3-(4-phenoxyphenyl)-2,3-dihydro-1H-imidazo[4,5-c]pyridin-1-yl)piperidine-1-carbonyl)-4-methyl-4-(6-(4-methylpiperazin-1-yl)pyridin-2-yl)pent-2-enenitrile] it was 17.8 nM; in that of `CN1CCN(c2ccnc(C(C)(C)C=C(C#N)C(=O)N3CCC[C@@H](n4c(=O)n(-c5ccc(Oc6ccccc6)cc5)c5c(N)nccc54)C3)n2)CC1` [Compound 56, (R)-2-(3-(4-amino-2-oxo-3-(4-phenoxyphenyl)-2,3-dihydro-1H-imidazo[4,5-c]pyridin-1-yl)piperidine-1-carbonyl)-4-methyl-4-(4-(4-methylpiperazin-1-yl)pyrimidin-2-yl)pent-2-enenitrile], 7.8 nM.
With `CCC1(C=C(C#N)C(=O)N2CCC[C@@H](n3c(=O)n(-c4ccc(Oc5ccccc5)cc4)c4c(N)nccc43)C2)CCOCC1` [Compound 65, (R)-2-(3-(4-amino-2-oxo-3-(4-phenoxyphenyl)-2,3-dihydro-1H-imidazo[4,5-c]pyridin-1-yl)piperidine-1-carbonyl)-3-(4-ethyltetrahydro-2H-pyran-4-yl)acrylonitrile], the IC50 is 2.4 nM.
On to “(R)-2-(3-(4-amino-2-oxo-3-(4-phenoxyphenyl)-2,3-dihydro-1H-imidazo[4,5-c]pyridin-1-yl)piperidine-1-carbonyl)-3-(4-methyl-1-(oxetan-3-yl)piperidin-4-yl)acrylonitrile [Compound 42]”, for which the IC50 was 4.1 nM.
Then `CC(C)(C=C(C#N)C(=O)N1CCC[C@@H](n2c(=O)n(-c3ccc(Oc4ccccc4)cc3F)c3c(N)nccc32)C1)N1CCN(C2COC2)CC1` [Compound 27, (R)-2-(3-(4-amino-3-(2-fluoro-4-phenoxyphenyl)-2-oxo-2,3-dihydro-1H-imidazo[4,5-c]pyridin-1-yl)piperidine-1-carbonyl)-4-methyl-4-(4-(oxetan-3-yl)piperazin-1-yl)pent-2-enenitrile], with 4.9 nM; and `N#CC(=CC1CCSCC1)C(=O)N1CCC[C@@H](n2c(=O)n(-c3ccc(Oc4ccccc4)cc3)c3c(N)nccc32)C1` [Compound 20, (R)-2-(3-(4-amino-2-oxo-3-(4-phenoxyphenyl)-2,3-dihydro-1H-imidazo[4,5-c]pyridin-1-yl)piperidine-1-carbonyl)-3-(tetrahydro-2H-thiopyran-4-yl)acrylonitrile], with 14.5 nM; and `COCC1(C=C(C#N)C(=O)N2CCC[C@@H](n3c(=O)n(-c4ccc(Oc5ccccc5)cc4)c4c(N)nccc43)C2)CCOCC1` [Compound 66, (R)-2-(3-(4-amino-2-oxo-3-(4-phenoxyphenyl)-2,3-dihydro-1H-imidazo[4,5-c]pyridin-1-yl)piperidine-1-carbonyl)-3-(4-(methoxymethyl)tetrahydro-2H-pyran-4-yl)acrylonitrile], with 2 nM.
For `COC[C@H]1CCCN1C(C)(C)C=C(C#N)C(=O)N1CCC[C@@H](n2c(=O)n(-c3ccc(Oc4ccccc4)cc3)c3c(N)nccc32)C1` [Compound 62, 2-((R)-3-(4-amino-2-oxo-3-(4-phenoxyphenyl)-2,3-dihydro-1H-imidazo[4,5-c]pyridin-1-yl)piperidine-1-carbonyl)-4-((R)-2-(methoxymethyl)pyrrolidin-1-yl)-4-methylpent-2-enenitrile], the IC50 amounted to 5.9 nM.
In the case of `CC(C)(C=C(C#N)C(=O)N1CCC[C@@H](n2c(=O)n(-c3ccc(Oc4ccccc4)cc3)c3c(N)ncnc32)C1)N1CCN(C2COC2)CC1` [Compound 31, (R)-2-(3-(6-amino-8-oxo-7-(4-phenoxyphenyl)-7H-purin-9(8H)-yl)piperidine-1-carbonyl)-4-methyl-4-(4-(oxetan-3-yl)piperazin-1-yl)pent-2-enenitrile] it was 3.7 nM; in that of `CN1CCN(C(C)(C)C=C(C#N)C(=O)N2CCC[C@H]2Cn2c(=O)n(-c3ccc(Oc4ccccc4)cc3)c3c(N)nccc32)CC1` [Compound 34, (S)-2-(2-((4-amino-2-oxo-3-(4-phenoxyphenyl)-2,3-dihydro-1H-imidazo[4,5-c]pyridin-1-yl)methyl)pyrrolidine-1-carbonyl)-4-methyl-4-(4-methylpiperazin-1-yl)pent-2-enenitrile], 23.1 nM.
Consider `CC(C)(N)C=C(C#N)C(=O)N1CCC[C@@H](n2c(=O)n(-c3ccc(Oc4ccccc4)cc3)c3c(N)nccc32)C1` [Compound 57, (R)-4-amino-2-(3-(4-amino-2-oxo-3-(4-phenoxyphenyl)-2,3-dihydro-1H-imidazo[4,5-c]pyridin-1-yl)piperidine-1-carbonyl)-4-methylpent-2-enenitrile], for which the half-inhibitory concentration (IC50) came to 61.4 nM.
Consider `CN(C)C(=O)C(C)(C)C=C(C#N)C(=O)N1CCC[C@@H](n2c(=O)n(-c3ccc(Oc4ccccc4)cc3)c3c(N)nccc32)C1` [Compound 50, (R)-5-(3-(4-amino-2-oxo-3-(4-phenoxyphenyl)-2,3-dihydro-1H-imidazo[4,5-c]pyridin-1-yl)piperidin-1-yl)-4-cyano-N,N,2,2-tetramethyl-5-oxopent-3-enamide], for which the half-maximal inhibitory concentration (IC50) was found to be 8.3 nM.
Consider `CC(C)(C=C(C#N)C(=O)N1CCC[C@@H](n2c(=O)n(-c3ccc(Oc4ccccc4)cc3)c3c(N)nccc32)C1)N1CCNC(=O)C1` [Compound 21, (R)-2-(3-(4-amino-2-oxo-3-(4-phenoxyphenyl)-2,3-dihydro-1H-imidazo[4,5-c]pyridin-1-yl)piperidine-1-carbonyl)-4-methyl-4-(3-oxopiperazin-1-yl)pent-2-enenitrile], for which the IC50 was 4.6 nM.
In the case of `CC(C)(C=C(C#N)C(=O)N1CCC[C@@H](n2c(=O)n(-c3ccc(Oc4ccccc4)c(F)c3)c3c(N)nccc32)C1)N1CCN(C2COC2)CC1` [Compound 26, (R)-2-(3-(4-amino-3-(3-fluoro-4-phenoxyphenyl)-2-oxo-2,3-dihydro-1H-imidazo[4,5-c]pyridin-1-yl)piperidine-1-carbonyl)-4-methyl-4-(4-(oxetan-3-yl)piperazin-1-yl)pent-2-enenitrile] it was 3.5 nM; in that of `COC[C@@H]1CCCN1C(C)(C)C=C(C#N)C(=O)N1CCC[C@@H](n2c(=O)n(-c3ccc(Oc4ccccc4)cc3)c3c(N)nccc32)C1` [Compound 63, 2-((R)-3-(4-amino-2-oxo-3-(4-phenoxyphenyl)-2,3-dihydro-1H-imidazo[4,5-c]pyridin-1-yl)piperidine-1-carbonyl)-4-((S)-2-(methoxymethyl)pyrrolidin-1-yl)-4-methylpent-2-enenitrile], 1.4 nM; in that of `C=C(F)C(=O)N1CCC[C@@H](n2c(=O)n(-c3ccc(Oc4ccccc4)cc3)c3c(N)nccc32)C1` [Compound 67, (R)-4-amino-1-(1-(2-fluoroacryloyl)piperidin-3-yl)-3-(4-phenoxyphenyl)-1H-imidazo[4,5-c]pyridin-2(3H)-one], 1.2 nM.
Then `CO[C@H]1CCN(C(C)(C)C=C(C#N)C(=O)N2CCC[C@@H](n3c(=O)n(-c4ccc(Oc5ccccc5)cc4)c4c(N)nccc43)C2)C1` [Compound 59, 2-((R)-3-(4-amino-2-oxo-3-(4-phenoxyphenyl)-2,3-dihydro-1H-imidazo[4,5-c]pyridin-1-yl)piperidine-1-carbonyl)-4-((S)-3-methoxypyrrolidin-1-yl)-4-methylpent-2-enenitrile], with 2.6 nM; and `C=CC(=O)N1CCC[C@H]1Cn1c(=O)n(-c2ccc(Oc3ccccc3)cc2)c2c(N)nccc21` [Compound 22, (S)-1-((1-acryloylpyrrolidin-2-yl)methyl)-4-amino-3-(4-phenoxyphenyl)-1H-imidazo[4,5-c]pyridin-2(3H)-one], with 4.8 nM.
In the case of `CC(C)(C=C(C#N)C(=O)N1CCC[C@@H](n2c(=O)n(-c3ccc(Oc4cccc(F)c4F)cc3)c3c(N)nccc32)C1)N1CCN(C2COC2)CC1` [Compound 25, (R)-2-(3-(4-amino-3-(4-(2,3-difluorophenoxy)phenyl)-2-oxo-2,3-dihydro-1H-imidazo[4,5-c]pyridin-1-yl)piperidine-1-carbonyl)-4-methyl-4-(4-(oxetan-3-yl)piperazin-1-yl)pent-2-enenitrile] it was 5.4 nM; in that of `N#CC(=CC1(c2ccccc2)CC1)C(=O)N1CCC[C@@H](n2c(=O)n(-c3ccc(Oc4ccccc4)cc3)c3c(N)nccc32)C1` [Compound 46, (R)-2-(3-(4-amino-2-oxo-3-(4-phenoxyphenyl)-2,3-dihydro-1H-imidazo[4,5-c]pyridin-1-yl)piperidine-1-carbonyl)-3-(1-phenylcyclopropyl)acrylonitrile], 13.1 nM.
For `CN(C1COC1)C(C)(C)C=C(C#N)C(=O)N1CCC[C@H]1Cn1c(=O)n(-c2ccc(Oc3ccccc3)cc2)c2c(N)nccc21` [Compound 36, (S)-2-(2-((4-amino-2-oxo-3-(4-phenoxyphenyl)-2,3-dihydro-1H-imidazo[4,5-c]pyridin-1-yl)methyl)pyrrolidine-1-carbonyl)-4-methyl-4-(methyl(oxetan-3-yl)amino)pent-2-enenitrile], the half-maximal inhibitory concentration (IC50) worked out at 15.7 nM.
In the case of `CC(C)(C=C(C#N)C(=O)N1CCC[C@@H](n2c(=O)n(-c3ccc(Oc4ccccc4)cc3)c3c(N)nccc32)C1)c1ccccn1` [Compound 55, (R)-2-(3-(4-amino-2-oxo-3-(4-phenoxyphenyl)-2,3-dihydro-1H-imidazo[4,5-c]pyridin-1-yl)piperidine-1-carbonyl)-4-methyl-4-(pyridin-2-yl)pent-2-enenitrile] it was 3.1 nM.
